Reference: patent US8071654B2, “Inhibitors of thromboxane formation and action” (priority 2000, dated 2011)

What was measured:
human platelets = assay: PGH2-evoked platelet aggregation; format: cell-based; details: PGH2 100 ng; PBT-3 at various doses before PGH2
Method: Venous blood was obtained from healthy human subjects who had not taken NSAID's for at least two weeks. Blood was drawn into plastic syringes containing ACD. It was immediately centrifuged at 23° at 200×g for 15 min. The platelet rich plasma was transferred into fresh plastic tubes and centrifuged at 400×g for 5 min. The supernatant was discarded and the platelet sediment was resuspended in fresh medium containing NaCl (137 mM), KCl (1 mM), NaH2PO4, glucose (5.5 mM), HEPES (20 mM) and CaCl2 (1 mM) and allowed to stand at room temperature for 30 min. A platelet count was made, which determined the volume of platelet suspension needed to make up 350×10^6 cells for each measurement. The aliquot was diluted with medium to make 0.5 ml/assay/cuvette. […]
0.5 ml of platelet suspension was added to siliconized glass tubes (four at a time) and heated with magnetic stirring to 37° for 1 min in a platelet aggregometer (PAP-4C). […] The response was recorded for the next 5 min. […] In experiments where the conversion of tritiated PGH2 was to be monitored, the procedure described above was repeated with tritiated PGH2 instead of unlabeled PGH2. After extraction of the sample as described above, the radiolabeled compounds were analyzed by TLC. Dose response curves for varying amounts of test compounds were generated and the data expressed as % inhibition of collagen-induced platelet aggregation. […]

COX-1 = biological target: T1, COX-1 (Ovis aries, UniProt P05979); assay: COX-1 activity, 14C-arachidonic acid conversion, TLC; format: biochemical; details: for COX-1 enzyme activity (% of control values, mean ± SD): n = 3
T1 construct: purchased Cayman Chemicals
T1 sequence (P05979 25-600): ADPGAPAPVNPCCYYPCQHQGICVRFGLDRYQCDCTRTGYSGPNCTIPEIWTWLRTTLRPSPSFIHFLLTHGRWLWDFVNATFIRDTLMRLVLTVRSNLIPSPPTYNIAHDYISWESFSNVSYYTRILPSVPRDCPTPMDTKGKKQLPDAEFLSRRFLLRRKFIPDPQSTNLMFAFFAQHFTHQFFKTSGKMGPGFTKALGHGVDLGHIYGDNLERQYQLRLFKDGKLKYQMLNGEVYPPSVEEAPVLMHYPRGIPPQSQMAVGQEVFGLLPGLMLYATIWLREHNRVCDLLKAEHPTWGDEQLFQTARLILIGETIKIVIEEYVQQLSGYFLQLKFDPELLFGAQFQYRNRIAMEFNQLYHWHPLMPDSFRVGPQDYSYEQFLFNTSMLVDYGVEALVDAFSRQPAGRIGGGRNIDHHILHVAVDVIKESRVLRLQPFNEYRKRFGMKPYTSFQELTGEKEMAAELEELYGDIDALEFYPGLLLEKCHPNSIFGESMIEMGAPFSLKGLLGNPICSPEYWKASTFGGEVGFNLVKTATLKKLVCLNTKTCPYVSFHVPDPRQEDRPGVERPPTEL
Method: COX-1 and COX-2 enzyme preparations were purchased from Cayman Chemicals. Preliminary studies established that 40 U of COX-1 or COX-2 could convert about 70% of ^14C-arachidonic acid (spec. act. 55 mCi/mmol, Ontario Isotopes, Ontario, Canada; 100,000 cpm were diluted with 0.5 μg unlabeled arachidonic acid (Cayman Chemicals)/1 ml assay) into products in vitro. Different amounts of PBT-3 (10 μg and 20 μg) were added and the conversion of AA into products was assessed during a 10 min reaction in 1 ml phosphate buffer at 37°. After extraction, products were assessed by TLC (silica gel G, ethyl acetate/acetic acid, 99/1, v/v). After development, the TLC plates were scanned for radioactive products with a Berthold TLC radiochromatogram scanner and the radioactivity was quantified by scraping zones of silica gel, placing in scintillation vials, elution with 1 ml methanol and addition of scintillation medium. Radioactivity was determined by conventional counting in a beta scintillation counter.

COX-1 enzyme activity (% of control values, mean ± SD) (COX-1; PBT-3 3.00 μM): 119.6 ± 14^NS % of control
COX-1 enzyme activity (% of control values, mean ± SD) (COX-1; PBT-3 30.0 μM): 116.8 ± 11^NS % of control
SMILES: CCCCC/C=C\CC1CC1[C@@H](O)/C=C\C/C=C\CCCC(=O)OC (stereo partly drawn) [PBT-3, 10(S)-hydroxy-11,12-cyclopropyl-eicosa-5Z,8Z,14Z-trienoic acid methyl ester]
inhibition of PGH2-evoked aggregation (human platelets): inhibited the second wave of aggregation
inhibition of COX-1, in words (COX-1; relatively large amounts of PBT-3, about 3-4 log doses greater than required to inhibit the TP receptor): Neither COX-1, COX-2,12-LOX nor Plase A2 was inhibited
